Laboratory results as given in patent US20260347843A1, “NERVOUS SYSTEM DELIVERY ENHANCER” (priority 2022, published 2026).

Legend:
[1] = ASO concentration in mouse nervous tissue after intraventricular administration (quantitative RT-PCR relative to U6 snRNA); type: in vivo
Procedure: (§1) Seven-week-old female ICR mice anesthetized with 2.5 to 4% isoflurane were fixed to a brain stereotaxic apparatus. Then, skin between the ears was cut open 2 to 3 cm anteroposteriorly, and perforated 1 mm leftward and 0.2 mm posteriorly from the bregma using a 1 mm diameter drill. A Hamilton syringe was filled with the nucleic acid agent. Through the perforated site, a needle was inserted approximately 3 mm deep. The ASO at a dose of 0.95 nmol (5 μg) per mouse was administered into the left lateral ventricle (n=4 to 7/group). The group to which ASO and TGN-073 were coadministered (hereinafter, the group is referred to as the “ASO/TGN-073 coadministration group”) means that ASO mixed with TGN-073 was administered. The group to which only ASO was administered (hereinafter, the group is referred to as the “ASO single administration group”) means that only ASO was administered without being mixed with TGN-073. The dose of TGN-073 in the ASO/TGN-073 coadministration group was 0.25 mg per mouse. After the intraventricular administration, the skin was sutured with a nylon thread. In addition, mice to which only TGN-073 was administered (hereinafter, the mice are referred to as the “TGN-073 administration group”) and mice to which only PBS was administered (hereinafter, the mice are referred to as the “PBS administration group”) were produced as controls.
(§2) A left hippocampus was extirpated from each of the mice at 3 hours or 7 days after the intraventricular administration. Using an IsogenI kit (GeneDesign Inc.), RNA was extracted from the left hippocampus extirpated. A cDNA was synthesized using Transcriptor Universal cDNA Master, DNase (Roche Diagnostics) in accordance with the protocol.
The intracerebral ASO concentration (the amount of the nucleic acid delivered to the brain) was measured by extracting RNA from the left hippocampus extirpated in the same manner as described above, and performing quantitative RT-PCR using a primer pair for amplifying ASO and TaqMan Small RNA Assay (Roche Applied Science). The intracerebral ASO concentration was obtained by calculating the ASO content relative to U6 snRNA (an internal standard gene). […]

Malat1 RNA = Malat1 RNA expression level after intraventricular administration (target gene suppression effect); type: in vivo, mouse; details: 7 days
Procedure: as §1, §2
Next, quantitative RT-PCR was performed with TaqMan (Roche Applied Science). Primers used in quantitative RT-PCR were products designed and manufactured by Thermo Fisher Scientific Inc. (formerly known as Life Technologies Corp.) on the basis of the various numbers of genes. Amplification conditions (temperature and time) were as follows: one cycle—95 °C for 15 seconds, 60 °C for 30 seconds, and 72 °C for 1 second—was repeated 40 times. The ratio of the expression amount of Malat1 RNA to the expression amount of Actb mRNA (internal standard gene) was calculated, and a value standardized with respect to the value of the PBS-treated group was determined as a relative Malat1 RNA level.
In this Example, the ASO targeted at Malat1, and used in Example 1 (the ASO described in Table 1) was used. Performed in accordance with Example 1 were: the preparation of a nucleic acid; an in vivo experiment; and the evaluation of the intracerebral ASO concentration (the amount of the nucleic acid delivered to the brain); and the target gene suppression effect. […]

[2] = ASO concentration in spinal cord and left hippocampus after intrathecal administration; type: in vivo; details: rat, coadministered with Mapt-targeting ASO of Table 2 (76 nmol, 400 μg per rat), 7 days
Procedure: In this Example, an ASO having the same configuration as the ASO used in Example 3 (the ASO described in Table 2) was used, and a nucleic acid was prepared by the same method as in Example 1.
The intrathecal administration of ASO and the measurement of the ASO concentration were performed by the following methods. A catheter was inserted into the spinal subarachnoid of an 8-week-old Slc:SD rat (male). When the rat was 9 weeks old, ASO and/or TGN-073 in an amount of 76 nmol (400 μg) per rat ([…]) was administered intrathecally. Hereinafter, the rats to which ASO alone was intrathecally administered are referred to as the “ASO single administration group”, and the rats to which ASO and TGN-073 were intrathecally administered together are referred to as the “ASO/TGN-073 coadministration group”. The spinal part and the left hippocampus were extirpated from the rats at 7 days after the intrathecal administration, and the ASO concentration in each tissue was evaluated by the same method as in Example 1.

[3] = VHH antibody concentration in brain tissue after intraventricular administration (Alexa 647 fluorescence); type: in vivo; details: coadministered with VHH antibody (29 μmol/mouse), TGN-073 250 μg/mouse, left hippocampus, left occipital cortex, left basal ganglia, 3 hours
Procedure: In this Example, a fluorescence-labeled camelized single domain antibody (VHH antibody; Alpaca anti-Rabbit IgG Nano (VHH) Recombinant Secondary Antibody, Alexa Fluor (trademark)647, #SA5-10327, Invitrogen) alone or in combination with TGN-073 (250 μg/mouse) was intraventricularly administered at a dose of […] to an 8-week-old ICR mouse (female). Hereinafter, the mice to which the VHH antibody alone was intraventricularly administered are referred to as the “VHH antibody single administration group”, and the mice to which the VHH antibody and TGN-073 were intraventricularly administered together are referred to as the “VHH antibody/TGN-073 coadministration group”. Brain tissue samples of the left hippocampus, left occipital cortex, and left basal ganglia were collected from the mice at 3 hours after the intraventricular administration. Using a fluorescence plate reader (M1000Pro, Tecan Group Ltd.), the Alexa 647 fluorescence intensity per brain weight was measured to thereby evaluate the concentration of the VHH antibody in each brain tissue.

Compound: O=S(=O)(Nc1ncccc1OCc1ccccc1)c1ccccc1 [TGN-073, N-(3-benzyloxypyridin-2-yl)-benzene-sulfonamide]
- ASO concentration in the central nervous system (hippocampus) vs ASO single administration ([1]; Example 7, coadministered with Mapt-targeting ASO of Table 6 (9.4 nmol, 50 μg), TGN-073-mes 0.125 mg/mouse per method, 7 days): marked enhancement
- ASO concentration in the central nervous system (hippocampus) vs nucleic acid agent alone ([1]; coadministered with ASO (single-stranded, 0.95 nmol), 7 days): dramatic increase
- ASO concentration in the central nervous system (hippocampus) vs nucleic acid agent alone ([1]; coadministered with Chol-HDO (0.95 nmol), 7 days): dramatic increase
- ASO concentration in the central nervous system (hippocampus) vs nucleic acid agent alone ([1]; coadministered with HDO (0.95 nmol), 7 days): dramatic increase
- ASO concentration in the hippocampus (amount of nucleic acid delivered to the brain) vs ASO single administration ([1]; coadministered with Malat1-targeting ASO (0.95 nmol, 5 μg), TGN-073 0.25 mg per mouse, 3 hours or 7 days): dramatic increase
- ASO concentration in the lumbar cord portion vs ASO single administration ([1]; coadministered with Malat1-targeting ASO (1.7 nmol, 12.5 μg), 7 days): dramatic increase
- Target gene (Malat1) suppression effect in the hippocampus vs ASO single administration (Malat1 RNA; coadministered with 2′-O-MOE-modified ASO (1.7 nmol, 12.5 μg)): an augmentation of the target gene suppression effect
- Target gene (Malat1) suppression effect in the hippocampus vs nucleic acid agent alone (Malat1 RNA; coadministered with ASO, HDO or Chol-HDO (0.95 nmol), any of the groups): marked enhancement
- Suppression effect on the Malat1 gene in the hippocampus vs ASO single administration (Malat1 RNA; coadministered with Malat1-targeting ASO (0.95 nmol), TGN-073 0.25 mg per mouse): markedly enhanced
- Target gene (Malat1) suppression effect in the lumbar cord portion vs ASO single administration (Malat1 RNA; coadministered with Malat1-targeting ASO (1.7 nmol, 12.5 μg)): marked enhancement
- ASO concentration in the left hippocampus vs ASO single administration [2]: dramatic increase
- ASO concentration in the spinal part vs ASO single administration [2]: dramatic increase
- VHH antibody concentration in the central nervous system vs VHH antibody single administration [3]: dramatic increase
